# According to patent US20130252821A1, “METHODS AND COMPOSITIONS FOR THE TREATMENT AND DIAGNOSIS OF DISEASES CHARACTERIZED BY VASCULAR LEAK, HYPOTENSION, OR A PROCOAGULANT STATE” (Beth Israel Deaconess Medical Center, Inc., priority 2005, published 2013):
# Tested on: VEGF
# Experiment: Serial free VEGF levels in patients on HD IL-2
# Format: in vivo, human
# Settings: four patients, single bevacizumab infusion two weeks prior to HD IL-2
# Text: Over a 6 month period at Beth Israel Deaconess Medical Center we prospectively collected discarded serum and plasma samples from oncology patients receiving high dose IL-2. […] After detailing these promising results, we then collected bloods before IL-2 infusion and with each successive days morning labs. Whenever possible, we also obtained discarded blood from all follow up outpatient appointments. All identifying information was removed and data was encoded to protect patient privacy. Clinical data was collected on each patient by chart review. This study was approved by the institutional IRB.
substance,measurement,value
bevacizumab: a neutralizing antibody to VEGF,free VEGF levels,low throughout protocol
